Reference: patent publication US20210122730A1, “GLUCOCORTICOID RECEPTOR MODULATORS” (ORIC Pharmaceuticals, Inc., priority 2017, published 2021)

Assays:
[1] = molecular target: T1, CYP2C8 (Homo sapiens, UniProt P10632); experiment: CYP Inhibition Assay (CYP2C8, human liver microsomes, paclitaxel substrate); format: in vitro ADME; settings: pH 7.4; pooled human liver microsomes 0.1 mg/mL, probe substrate paclitaxel
T1 construct: Pooled human microsomes were obtained from Sekisui XenoTech, KS; tissue Sekisui XenoTech, KS; host or cells: pooled human liver microsomes
T1 sequence (P10632 1-490): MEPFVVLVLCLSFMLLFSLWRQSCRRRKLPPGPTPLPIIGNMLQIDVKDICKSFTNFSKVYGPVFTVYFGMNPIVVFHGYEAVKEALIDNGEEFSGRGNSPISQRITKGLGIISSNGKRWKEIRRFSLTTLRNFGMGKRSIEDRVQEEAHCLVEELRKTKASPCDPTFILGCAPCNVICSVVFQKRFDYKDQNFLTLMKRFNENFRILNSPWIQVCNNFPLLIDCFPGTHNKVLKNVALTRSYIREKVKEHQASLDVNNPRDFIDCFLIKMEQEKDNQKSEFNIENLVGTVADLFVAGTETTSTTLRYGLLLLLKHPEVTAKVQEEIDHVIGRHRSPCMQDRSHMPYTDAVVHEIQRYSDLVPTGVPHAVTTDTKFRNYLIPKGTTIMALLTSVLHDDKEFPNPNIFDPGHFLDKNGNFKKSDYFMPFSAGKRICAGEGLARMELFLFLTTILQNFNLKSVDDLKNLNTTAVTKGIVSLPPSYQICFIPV
How it was run: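 CYP2C8 activity read as 6α-hydroxypaclitaxel formation by LC-MS/MS, with % inhibition versus vehicle control. Reactions ran 5 min at 37° C, pH 7.4 phosphate buffer, 0.1 mg/mL pooled human liver microsomes, 1 mM NADPH, duplicate wells.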

[2] = molecular target: T2, GR (Homo sapiens, UniProt P04150); experiment: In Vitro GR Luciferase Reporter Assay (antagonist mode, CHO-K1-GR-MMTV-Luc reporter cells); format: cell-based; settings: antagonist mode, 10 nM Dexamethasone
T2 construct: expressed in transfected cells; host or cells: CHO-K1
T2 sequence (P04150 1-777): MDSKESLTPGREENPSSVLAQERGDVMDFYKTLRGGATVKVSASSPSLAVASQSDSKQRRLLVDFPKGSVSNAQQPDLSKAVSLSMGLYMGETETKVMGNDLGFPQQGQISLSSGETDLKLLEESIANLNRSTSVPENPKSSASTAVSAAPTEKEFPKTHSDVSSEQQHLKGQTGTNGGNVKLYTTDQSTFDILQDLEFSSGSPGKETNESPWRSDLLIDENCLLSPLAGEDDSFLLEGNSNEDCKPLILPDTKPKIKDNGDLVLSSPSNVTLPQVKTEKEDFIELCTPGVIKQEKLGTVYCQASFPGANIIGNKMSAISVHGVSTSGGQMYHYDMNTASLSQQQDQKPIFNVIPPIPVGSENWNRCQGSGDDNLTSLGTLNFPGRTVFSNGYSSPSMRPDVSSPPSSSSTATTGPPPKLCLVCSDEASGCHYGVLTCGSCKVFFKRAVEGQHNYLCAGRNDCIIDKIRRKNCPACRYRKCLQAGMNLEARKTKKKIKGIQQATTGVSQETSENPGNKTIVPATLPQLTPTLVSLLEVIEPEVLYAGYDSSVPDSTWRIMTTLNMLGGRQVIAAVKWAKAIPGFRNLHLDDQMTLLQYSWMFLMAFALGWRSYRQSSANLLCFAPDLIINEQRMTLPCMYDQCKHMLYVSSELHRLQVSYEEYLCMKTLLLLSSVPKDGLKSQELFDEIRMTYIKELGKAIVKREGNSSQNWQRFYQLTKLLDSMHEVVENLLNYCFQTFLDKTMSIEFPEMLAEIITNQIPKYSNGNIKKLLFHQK
How it was run: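 Antagonist mode: compounds (8 serial 1:5 dilutions) added to GR-MMTV-luciferase CHO-K1 reporter cells co-exposed to 10 nM dexamethasone final, in phenol red-free DMEM plus 10% CSS. After roughly 18-24 h at 37° C, OneGlo luminescence read and IC50 calculated.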

inhibition at 5 min [1] [%] | IC50 [2] [nM] | SMILES
50 to 75 | ≤ 100 | Cn1ccc(S(=O)(=O)N(C2COC2)[C@H]2CCC3=Cc4c(cnn4-c4ccc(F)cc4)C[C@]3(C(=O)c3ncc(C(F)(F)F)s3)C2)n1 [Example 196, N-((4aS,6S)-1-(4-fluorophenyl)-4a-(5-(trifluoromethyl)thiazole-2-carbonyl)-4,4a,5,6,7,8-hexahydro-1H-benzo[f]indazol-6-yl)-1-methyl-N-(oxetan-3-yl)-1H-pyrazole-3-sulfonamide]
25 to 50 | ≤ 100 | Cn1ccc(S(=O)(=O)N(C2COC2)[C@H]2CCC3=Cc4c(cnn4-c4ccc(F)cc4)C[C@]3(C(=O)c3cc(C(F)(F)F)ccn3)C2)n1 [Example 198, N-((4aS,6S)-1-(4-fluorophenyl)-4a-(4-(trifluoromethyl)picolinoyl)-4,4a,5,6,7,8-hexahydro-1H-benzo[f]indazol-6-yl)-1-methyl-N-(oxetan-3-yl)-1H-pyrazole-3-sulfonamide]
75 to 90 | ≤ 100 | CCN([C@H]1CCC2=Cc3c(cnn3-c3ccc(F)cc3)C[C@]2(C(=O)c2ncc(C(F)(F)F)s2)C1)S(=O)(=O)c1ccn(C)n1 [Example 199, N-ethyl-N-((4aS,6S)-1-(4-fluorophenyl)-4a-(5-(trifluoromethyl)thiazole-2-carbonyl)-4,4a,5,6,7,8-hexahydro-1H-benzo[f]indazol-6-yl)-1-methyl-1H-pyrazole-3-sulfonamide]
≤ 25 | ≤ 100 | Cn1cnc(S(=O)(=O)N(C2CC2)[C@H]2CCC3=Cc4c(cnn4-c4ccc(F)cc4)C[C@]3(C(=O)c3ncc(C(F)(F)F)s3)C2)c1 [Example 201, N-cyclopropyl-N-((4aS,6S)-1-(4-fluorophenyl)-4a-(5 (trifluoromethyl)thiazole-2-carbonyl)-4,4a,5,6,7,8-hexahydro-1H-benzo[f]indazol-6-yl)-1-methyl-1H-imidazole-4-sulfonamide]
25 to 50 | ≤ 100 | Cn1cc(S(=O)(=O)[C@@]2(F)CCC3=Cc4c(cnn4-c4ccc(F)cc4)C[C@]3(C(=O)c3cc(C(F)(F)F)ccn3)C2)cn1 [Example 202, ((4aS,6S)-6-fluoro-1-(4-fluorophenyl)-6-((1-methyl-1H-pyrazol-4-yl)sulfonyl)-1,4,5,6,7,8-hexahydro-4aH-benzo[f]indazol-4a-yl)(4-(trifluoromethyl)pyridin-2-yl)methanone]
25 to 50 | ≤ 100 | Cn1ccc(S(=O)(=O)N(C2CCC2)[C@H]2CCC3=Cc4c(cnn4-c4ccc(F)cc4)C[C@]3(C(=O)c3ncc(C(F)(F)F)s3)C2)n1 [Example 203, N-cyclobutyl-N-((4aS,6S)-1-(4-fluorophenyl)-4a-(5 (trifluoromethyl)thiazole-2-carbonyl)-4,4a,5,6,7,8-hexahydro-1H-benzo[f]indazol-6-yl)-1-methyl-1H-pyrazole-3-sulfonamide]
25 to 50 | ≤ 100 | O=C(c1cc(C(F)(F)F)ccn1)[C@]12Cc3cnn(-c4ccc(F)cc4)c3C=C1CC[C@H](N(C1COC1)S(=O)(=O)c1ccc(F)cc1)C2 [Example 204, 4-fluoro-N-((4aS,6S)-1-(4-fluorophenyl)-4a-(4-(trifluoromethyl)picolinoyl)-4,4a,5,6,7,8-hexahydro-1H-benzo[f]indazol-6-yl)-N-(oxetan-3-yl)benzenesulfonamide]
25 to 50 | ≤ 100 | Cn1ccc(S(=O)(=O)N(C2CCC2)[C@H]2CCC3=Cc4c(cnn4-c4ccc(F)cc4)C[C@]3(C(=O)c3cc(C(F)(F)F)ccn3)C2)n1 [Example 206, N-cyclobutyl-N-((4aS,6S)-1-(4-fluorophenyl)-4a-(4-(trifluoromethyl)picolinoyl)-4,4a,5,6,7,8-hexahydro-1H-benzo[f]indazol-6-yl)-1-methyl-1H-pyrazole-3-sulfonamide]
75 to 90 | ≤ 100 | CC(C)N([C@H]1CCC2=Cc3c(cnn3-c3ccc(F)cc3)C[C@]2(C(=O)c2cc(C(F)(F)F)ccn2)C1)S(=O)(=O)c1ccc(F)cc1 [Example 210, 4-fluoro-N-((4aS,6S)-1-(4-fluorophenyl)-4a-(4-(trifluoromethyl)picolinoyl)-4,4a,5,6,7,8-hexahydro-1H-benzo[f]indazol-6-yl)-N-isopropylbenzenesulfonamide]
25 to 50 | ≤ 100 | CC(C)CN([C@H]1CCC2=Cc3c(cnn3-c3ccc(F)cc3)C[C@]2(C(=O)c2ncc(C(F)(F)F)s2)C1)S(=O)(=O)c1ccn(C)n1 [Example 212, N-((4aS,6S)-1-(4-fluorophenyl)-4a-(5-(trifluoromethyl)thiazole-2-carbonyl)-4,4a,5,6,7,8-hexahydro-1H-benzo[f]indazol-6-yl)-N-isobutyl-1-methyl-1H-pyrazole-3-sulfonamide]
≤ 25 | ≤ 100 | CCN([C@H]1CCC2=Cc3c(cnn3-c3ccc(F)cc3)C[C@]2(C(=O)c2cc(C(F)(F)F)ccn2)C1)S(=O)(=O)c1cn(C)cn1 [Example 214, N-ethyl-N-((4aS,6S)-1-(4-fluorophenyl)-4a-(4-(trifluoromethyl)picolinoyl)-4,4a,5,6,7,8-hexahydro-1H-benzo[f]indazol-6-yl)-1-methyl-1H-imidazole-4-sulfonamide]
50 to 75 | ≤ 100 | CC(C)CN([C@H]1CCC2=Cc3c(cnn3-c3ccc(F)cc3)C[C@]2(C(=O)c2cc(C(F)(F)F)ccn2)C1)S(=O)(=O)c1ccn(C)n1 [Example 215, N-((4aS,6S)-1-(4-fluorophenyl)-4a-(4-(trifluoromethyl)picolinoyl)-4,4a,5,6,7,8-hexahydro-1H-benzo[f]indazol-6-yl)-N-isobutyl-1-methyl-1H-pyrazole-3-sulfonamide]
25 to 50 | ≤ 100 | CCN([C@H]1CCC2=Cc3c(cnn3-c3ccc(F)cc3)C[C@]2(C(=O)c2ncc(C(F)(F)F)s2)C1)S(=O)(=O)c1cn(C)cn1 [Example 216, N-ethyl-N-((4aS,6S)-1-(4-fluorophenyl)-4a-(5-(trifluoromethyl)thiazole-2-carbonyl)-4,4a,5,6,7,8-hexahydro-1H-benzo[f]indazol-6-yl)-1-methyl-1H-imidazole-4-sulfonamide]
25 to 50 | ≤ 100 | Cn1cnc(S(=O)(=O)N(CC2CC2)[C@H]2CCC3=Cc4c(cnn4-c4ccc(F)cc4)C[C@]3(C(=O)c3ncc(C(F)(F)F)s3)C2)c1 [Example 217, N-(cyclopropylmethyl)-N-((4aS,6S)-1-(4-fluorophenyl)-4a-(5-(trifluoromethyl)thiazole-2-carbonyl)-4,4a,5,6,7,8-hexahydro-1H-benzo[f]indazol-6-yl)-1-methyl-1H-imidazole-4-sulfonamide]
25 to 50 | ≤ 100 | Cn1cc(S(=O)(=O)N(C2CC2)[C@H]2CCC3=Cc4c(cnn4-c4ccc(F)cc4)C[C@]3(C(=O)c3ncc(C(F)(F)F)s3)C2)nn1 [Example 219, N-cyclopropyl-N-((4aS,6S)-1-(4-fluorophenyl)-4a-(5 (trifluoromethyl)thiazole-2-carbonyl)-4,4a,5,6,7,8-hexahydro-1H-benzo[f]indazol-6-yl)-1-methyl-1H-1,2,3-triazole-4-sulfonamide]
50 to 75 | ≤ 100 | CC(C)N([C@H]1CCC2=Cc3c(cnn3-c3ccc(F)cc3)C[C@]2(C(=O)c2cc(C(F)(F)F)ccn2)C1)S(=O)(=O)c1cn(C)cn1 [Example 221, N-((4aS,6S)-1-(4-fluorophenyl)-4a-(4-(trifluoromethyl)picolinoyl)-4,4a,5,6,7,8-hexahydro-1H-benzo[f]indazol-6-yl)-N-isopropyl-1-methyl-1H-imidazole-4-sulfonamide]
